Assay results: ChEMBL document CHEMBL1201862, “PubChem BioAssay data set” (2004)
Counter-ions that a name gives are not always drawn.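 Results reflect a 48-hour exposure of cells in 96-well plates to compound at five concentrations. At the GI50, growth is halved.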 Active and inactive are the calls of the source. Cut-off read from the data, not from the text of the source: active = GI50 up to about 1.1 µM and inactive = higher.

Experiments:
Experiment in all cases: growth of human tumour cells (NCI), 48 h
DMS-273 = test system: DMS-273
DLD-1 = test system: DLD-1
M19-MEL = test system: M19-MEL
HOP-18 = test system: HOP-18
LXFL 529 = test system: LXFL 529
RXF 631 = test system: RXF 631
DMS-114 = test system: DMS-114
SNB-78 = test system: SNB-78
XF498 = test system: XF498

| SMILES | GI50 (DMS-273) | GI50 (DLD-1) | GI50 (M19-MEL) | GI50 (HOP-18) | GI50 (LXFL 529) | GI50 (RXF 631) | GI50 (DMS-114) | GI50 (SNB-78) | GI50 (XF498) |
| --- | --- | --- | --- | --- | --- | --- | --- | --- | --- |
| COc1ccc2c(c1)C(O)(C(F)(F)F)c1cc(C(=O)C(F)(F)F)c3ccccc3c1N2 (stereo not drawn) | 11 µM (inactive) | 10.2 µM (inactive) | 14.8 µM (inactive) | 17.4 µM (inactive) | 10.3 µM (inactive) | 13.5 µM (inactive) | 10 µM (inactive) | – | – |
| COC(=O)/C=C(\C(=O)OC)c1c2c3c(cc(OC)c(OC)c3c3ccccc13)CCN2C | 22.6 µM (inactive) | 22.3 µM (inactive) | 33 µM (inactive) | 64.9 µM (inactive) | 42.1 µM (inactive) | 33.8 µM (inactive) | 27.9 µM (inactive) | 37.8 µM (inactive) | – |
| CCOC(=O)C12CCCC1(O)N(NC(=O)c1ccccc1)C(C)=C2C(=O)OC (stereo not drawn) | > 100 µM (inactive) | – | > 100 µM (inactive) | > 100 µM (inactive) | > 100 µM (inactive) | – | – | > 100 µM (inactive) | – |
| O=C1CSc2ccncc2N1 | > 100 µM (inactive) | > 100 µM (inactive) | > 100 µM (inactive) | – | > 100 µM (inactive) | – | > 100 µM (inactive) | – | > 100 µM (inactive) |
| CCCNC(=S)NNC(=O)CSc1nc(-c2ccccc2)c(-c2ccccc2)[nH]1 | 34.8 µM (inactive) | 70.3 µM (inactive) | 45 µM (inactive) | – | 27.9 µM (inactive) | – | > 100 µM (inactive) | > 100 µM (inactive) | 47.4 µM (inactive) |
| CC(C)CC12CC3CCC(CNC1=O)C32C (stereo not drawn) | > 100 µM (inactive) | > 100 µM (inactive) | > 100 µM (inactive) | > 100 µM (inactive) | > 100 µM (inactive) | – | 78 µM (inactive) | > 100 µM (inactive) | > 100 µM (inactive) |
| CC(/C=C/C(=O)c1sc(C(N)=S)nc1C)=C\c1ccccc1 | 20 µM (inactive) | 21 µM (inactive) | > 100 µM (inactive) | > 100 µM (inactive) | > 100 µM (inactive) | 40.6 µM (inactive) | 17 µM (inactive) | > 100 µM (inactive) | > 100 µM (inactive) |
| COc1ccc2[nH]c3c(cnn4cnnc34)c2c1 | > 100 µM (inactive) | > 100 µM (inactive) | > 100 µM (inactive) | > 100 µM (inactive) | > 100 µM (inactive) | > 100 µM (inactive) | > 100 µM (inactive) | – | – |
| CC/C(=N\NS(=O)(=O)c1ccccc1)c1ccccc1 | > 100 µM (inactive) | > 100 µM (inactive) | > 100 µM (inactive) | > 100 µM (inactive) | > 100 µM (inactive) | > 100 µM (inactive) | – | > 100 µM (inactive) | > 100 µM (inactive) |
| Cn1c(=O)c2[nH]cnc2n(CC(=O)O)c1=O | > 100 µM (inactive) | > 100 µM (inactive) | > 100 µM (inactive) | – | > 100 µM (inactive) | > 100 µM (inactive) | > 100 µM (inactive) | > 100 µM (inactive) | > 100 µM (inactive) |
| COc1cc2[nH]c3c(c2cc1OC)CCN[C@]31CC[C@]2(CC3c4c(cc(OC)c(O)c42)CCN3C)C[C@H]1OC (stereo partly drawn) | 2 µM (inactive) | 24.4 µM (inactive) | 17.9 µM (inactive) | 18 µM (inactive) | 24.5 µM (inactive) | 11.7 µM (inactive) | 17.3 µM (inactive) | 29.1 µM (inactive) | 15.6 µM (inactive) |
| NC(=O)NNC(=O)NC12CC3CC(CC(C3)C1)C2 | > 100 µM (inactive) | > 100 µM (inactive) | > 100 µM (inactive) | > 100 µM (inactive) | > 100 µM (inactive) | – | > 100 µM (inactive) | > 100 µM (inactive) | > 100 µM (inactive) |
| COc1ccc(/C=C/c2cc(OC)cc(OC)c2)cc1 [TRISMETHOXYRESVERATROL] | 3.79 µM (inactive) | 5.28 µM (inactive) | 6.31 µM (inactive) | > 24.3 µM (inactive) | 4.86 µM (inactive) | 4.2 µM (inactive) | 3.5 µM (inactive) | 3.98 µM (inactive) | 8.43 µM (inactive) |
| COc1nc(NC2OC(COC(C)=O)C(OC(C)=O)C(OC(C)=O)C2OC(C)=O)c2c(OC(C)=O)c(C)c(=O)oc2n1 (stereo not drawn) | – | > 100 µM (inactive) | > 100 µM (inactive) | > 100 µM (inactive) | > 100 µM (inactive) | – | > 100 µM (inactive) | > 100 µM (inactive) | > 100 µM (inactive) |
| COC1CC(OC)C(O)C(CO)O1 (stereo not drawn) | – | > 100 µM (inactive) | > 100 µM (inactive) | > 100 µM (inactive) | > 100 µM (inactive) | – | – | > 100 µM (inactive) | > 100 µM (inactive) |
| CCCCN(CC)C(=O)C(=O)Cc1nc2ccc(C(=O)c3ccccc3)cc2nc1O | 53 µM (inactive) | > 100 µM (inactive) | > 100 µM (inactive) | – | 47.1 µM (inactive) | – | 53.7 µM (inactive) | 49.5 µM (inactive) | – |
| CC(C)(C)/N=N/C(C)(C)N=C=O | > 100 µM (inactive) | > 100 µM (inactive) | > 100 µM (inactive) | > 100 µM (inactive) | > 100 µM (inactive) | – | > 100 µM (inactive) | > 100 µM (inactive) | > 100 µM (inactive) |
| CCOC(=O)c1sc2c(C(=O)OCC)n3cc(C)cc(C)c3c2c1O | > 100 µM (inactive) | > 100 µM (inactive) | > 100 µM (inactive) | – | > 100 µM (inactive) | – | 37.6 µM (inactive) | > 100 µM (inactive) | – |
| O=C1CCC(=O)C1=NNc1cc(Cl)cc(Cl)c1 | > 100 µM (inactive) | > 100 µM (inactive) | > 100 µM (inactive) | > 100 µM (inactive) | – | > 100 µM (inactive) | 98.2 µM (inactive) | > 100 µM (inactive) | – |
| CN(C)c1ccc(/C=c2\sc3nnc(-c4ccco4)n3c2=O)cc1 | > 100 µM (inactive) | > 100 µM (inactive) | > 100 µM (inactive) | > 100 µM (inactive) | > 100 µM (inactive) | > 100 µM (inactive) | > 100 µM (inactive) | > 100 µM (inactive) | > 100 µM (inactive) |
| COC(=O)C1=CO[C@@H](C)[C@@H]2Cn3ccc4c5ccccc5nc-4c3C[C@H]12 [ALSTONINE HYDROCHLORIDE] | > 100 µM (inactive) | > 100 µM (inactive) | > 100 µM (inactive) | 32.7 µM (inactive) | > 100 µM (inactive) | > 100 µM (inactive) | > 100 µM (inactive) | > 100 µM (inactive) | 49.5 µM (inactive) |
| COc1cc2c(oc(=O)c3c4oc([Si](C)(C)C)cc4cc(OC)c23)c2cccc(O)c12 | > 100 µM (inactive) | > 100 µM (inactive) | > 100 µM (inactive) | > 100 µM (inactive) | > 100 µM (inactive) | – | > 100 µM (inactive) | – | > 100 µM (inactive) |
| CNC1C(O)CC(OC2C/C=C(\C)C/C(C)=C/C=C/CCC(C)CNC(=O)/C=C/C=C/C2C)OC1C (stereo not drawn) | 0.188 µM (active) | 0.26 µM (active) | 0.714 µM (active) | 1.77 µM (inactive) | 0.14 µM (active) | 0.206 µM (active) | 0.463 µM (active) | 1.66 µM (inactive) | 1.68 µM (inactive) |
| O=C1Cc2c([nH]c3ccccc23)-c2cc(Br)ccc2N1 | > 100 µM (inactive) | > 100 µM (inactive) | > 100 µM (inactive) | > 100 µM (inactive) | > 100 µM (inactive) | > 100 µM (inactive) | > 100 µM (inactive) | > 100 µM (inactive) | – |
| Nc1nc(NCCO)c(N=O)c(=O)[nH]1 | > 100 µM (inactive) | > 100 µM (inactive) | > 100 µM (inactive) | > 100 µM (inactive) | > 100 µM (inactive) | – | > 100 µM (inactive) | > 100 µM (inactive) | > 100 µM (inactive) |
| O=c1[nH]c(=O)n(C2CC(O)C(CO)O2)cc1C(F)(C(F)(F)F)C(F)(F)F (stereo not drawn) | > 100 µM (inactive) | > 100 µM (inactive) | > 100 µM (inactive) | 84.5 µM (inactive) | > 100 µM (inactive) | – | > 100 µM (inactive) | > 100 µM (inactive) | > 100 µM (inactive) |
| O=C(Cc1c(C(=O)Nc2ccccc2)sc(C(=O)Nc2ccccc2)c1CC(=O)Nc1ccccc1)Nc1ccccc1 | > 100 µM (inactive) | > 100 µM (inactive) | > 100 µM (inactive) | 68.9 µM (inactive) | > 100 µM (inactive) | – | > 100 µM (inactive) | > 100 µM (inactive) | > 100 µM (inactive) |
| COC(=O)C(=O)C(C(=O)C=C(C)C)C(=O)C(=O)Nc1ccc(C)cc1C (stereo not drawn) | > 100 µM (inactive) | > 100 µM (inactive) | > 100 µM (inactive) | > 100 µM (inactive) | > 100 µM (inactive) | – | > 100 µM (inactive) | > 100 µM (inactive) | > 100 µM (inactive) |
